The results in this text go back to ChEMBL document CHEMBL4007471, “Assessment of new triplet forming artificial nucleobases as RNA ligands directed towards HCV IRES IIId loop” (Bioorg Med Chem Lett, 2017).

Usually Kd stands for the constant that tells how readily two partners part at equilibrium.

Test [1] concerns Internal ribosome entry site (IRES). Put plainly: Binding affinity to HCV 5'-Alexa488-labeled IRES domain 3 loop RNA at 20 degC after overnight incubation by fluorescence assay. The arrangement: species or system Hepacivirus hominis.
The test system is the same in test [2]. Put plainly: Binding affinity to HCV 5'-Alexa488-labeled IRES domain 3 loop RNA at 5 degC after overnight incubation by fluorescence assay. The arrangement: species or system Hepacivirus hominis.
Test [3] has the same test system. As to the kind of experiment: Binding affinity to HCV 5'-Alexa488-labeled IRES domain 3 loop RNA at 10 degC after overnight incubation by fluorescence assay. More on the design: species or system Hepacivirus hominis.
Test [4] has the same test system. Put plainly: Binding affinity to HCV 5'-Alexa488-labeled IRES domain 3 loop RNA at 15 degC after overnight incubation by fluorescence assay. The arrangement: species or system Hepacivirus hominis.
For test [5] the test system is unchanged. As to the kind of experiment: Binding affinity to HCV 5'-Alexa488-labeled IRES domain 3 loop RNA at 30 degC after overnight incubation by fluorescence assay. The arrangement: species or system Hepacivirus hominis.
Test [6] has the same test system. As to the kind of experiment: Binding affinity to HCV 5'-Alexa488-labeled IRES domain 3 loop RNA at 36 degC after overnight incubation by fluorescence assay. The arrangement: species or system Hepacivirus hominis.
The target of test [7] is Internal ribosome entry site (IRES). As to the kind of experiment: Binding affinity to HCV IRES 5'Alexa488-GCCGAGGAGUGUUGGGUCGCGCAAGGC-3' RNA at 20 degC after overnight incubation by fluorescence assay. More on the design: species or system Hepacivirus hominis.
For test [8], the system named is Internal ribosome entry site (IRES). As to the kind of experiment: Binding affinity to HCV 5'-Alexa488-labeled IRES domain 3 loop RNA assessed as gibbs free energy change after overnight incubation by fluorescence assay. To be noted: Hepacivirus hominis.
The test system is the same in test [9]. As to the kind of experiment: Binding affinity to HCV 5'-Alexa488-labeled IRES domain 3 loop RNA assessed as change in enthalpy after overnight incubation by fluorescence assay. To be noted: Hepacivirus hominis.
Test [10] has the same test system. As to the kind of experiment: Binding affinity to HCV 5'-Alexa488-labeled IRES domain 3 loop RNA assessed as change in entropy after overnight incubation by fluorescence assay. To be noted: Hepacivirus hominis.
For test [11], the target named is Internal ribosome entry site (IRES). As to the kind of experiment: Binding affinity to HCV 5'-Alexa488-labeled IRES domain 3 loop RNA at 20 degC after overnight incubation in presence of 50-fold excess of tRNA by fluorescence assay. The arrangement: species or system Hepacivirus hominis.
Test [12] concerns Internal ribosome entry site (IRES). As to the kind of experiment: Selectivity ratio of Kd for 5'-Alexa488-labeled IRES domain 3 loop RNA in presence of 50-fold excess of tRNA at 20 degC to Kd for HCV 5'-Alexa488-labeled IRES domain 3 loop RNA at 20 degC. The following applies: Hepacivirus hominis.
The test system is the same in test [13]. Put plainly: Potency index, ratio of neomycin Kd to compound Kd for HCV 5'-Alexa488-labeled IRES domain 3 loop RNA at 20 degC. The following applies: Hepacivirus hominis.
The test system is the same in test [14]. Put plainly: Selectivity ratio of Kd for HCV IRES 5'Alexa488-GCCGAGGAGUGUUGGGUCGCGCAAGGC-3' RNA at 20 degC to Kd for HCV 5'-Alexa488-labeled IRES domain 3 loop RNA at 20 degC. To be noted: Hepacivirus hominis.

Structures are written as SMILES.

With `NCCCCCC(=O)NCC(=O)Nc1nc2ccccc2[nH]1`, the equilibrium dissociation constant (Kd) result in test [1], in test [2], in test [3], in test [4], in test [5] and in [6] was “Not Active” in each case. Also, in test [7] (read-out: Kd), the Kd was found to be 41.4 µM.

As for `NCCCC[C@H](N)C(=O)O` [LYSINE], the Kd result in test [1] is recorded as “Not Active”.

Turning to `CC(=O)Nc1nccc(-c2cccc(NC(=O)CCCCCN)c2)n1`, the Kd stood at 11.8 µM in test [1] (read-out: Kd); 10.8 µM in [2] (read-out: Kd); 11.1 µM in test [3] (read-out: Kd); 11.4 µM in test [4] (read-out: Kd); 12 µM in test [5] (read-out: Kd); 11.4 µM in [6] (read-out: Kd). Also, the figures for the equilibrium dissociation constant (Kd) entry in [7] and in [11] were “Not Active” and 17.1 µM, respectively. The deltaG in test [8] is -6.62 kcal/mol. In addition, the deltaH in test [9] is -0.741 kcal/mol. The TdeltaS in test [10] worked out at 5.88 kcal/mol. Moreover, in [12], the Selectivity ratio worked out at 1.4.

On to `CC(=O)Nc1nccc(-c2cccc(NC(=O)c3nccnc3N)c2)n1`, for which the Kd in test [1] (read-out: Kd) is 232 µM; in test [2] (read-out: Kd), 81.5 µM; in test [3] (read-out: Kd), 138 µM; in [4] (read-out: Kd), 158 µM; in test [5] it was “Not Active”; in [6] it was “Not Active”.

For `CC(=O)Nc1nccc(-c2cccc(NC(=O)CCCCCNC(=O)[C@@H](N)CN)c2)n1`, the dissociation constant (Kd) in test [1] (read-out: Kd) turned out to be 16.8 µM; in test [2] (read-out: Kd), 9.4 µM; in test [3] (read-out: Kd) it was 11.6 µM; in test [4] (read-out: Kd), 14.2 µM; in test [5] (read-out: Kd) it was 27.7 µM; in test [6] (read-out: Kd) it was 42.6 µM. Also, the deltaG in [8] is -6.33 kcal/mol. Also, in [9], the deltaH is -8.08 kcal/mol. In test [10], the TdeltaS is -1.74 kcal/mol.

For `CC(=O)Nc1nccc(-c2cccc(NC(=O)[C@@H](N)CCCCN)c2)n1`, the dissociation constant (Kd) in test [1] (read-out: Kd) stood at 4.3 µM; in test [2] (read-out: Kd) it was 3.2 µM; in [3] (read-out: Kd), 3.4 µM; in [4] (read-out: Kd) it was 3.8 µM; in test [5] (read-out: Kd), 6.2 µM; in test [6] (read-out: Kd), 8.6 µM. Further, the Kd in test [7] (read-out: Kd) amounted to 554 µM; in test [11] it was 10.5 µM. Further, in test [13], the Ratio is 2. Further, the deltaG in test [8] was -7.17 kcal/mol. For the same molecule, the deltaH in test [9] was -6.14 kcal/mol. Further, in test [10], the TdeltaS is 1.03 kcal/mol. In addition, the Selectivity ratio in test [14] is greater than 100; in test [12] it was 2.4.

In the case of `CC(=O)Nc1nccc(-c2cccc(NC(=O)[C@@H](N)Cc3c[nH]cn3)c2)n1`, the dissociation constant (Kd) in [1] (read-out: Kd) worked out at 19.7 µM; in test [2] (read-out: Kd), 8.6 µM; in test [3] (read-out: Kd) it was 11.8 µM; in [4] (read-out: Kd) it was 15 µM; in test [5] (read-out: Kd) it was 50.8 µM; in [6] (read-out: Kd) it was 262 µM. For the same molecule, in [8], the deltaG is -6.19 kcal/mol. For the same molecule, in [9], the deltaH was -11.6 kcal/mol. Further, in test [10], the TdeltaS is -5.4 kcal/mol.

As for `NCC1O[C@H](O[C@H]2[C@@H](O)[C@H](O[C@H]3[C@H](O)[C@@H](N)C[C@@H](N)[C@@H]3O[C@H]3O[C@H](CN)[C@@H](O)[C@H](O)[C@H]3N)O[C@@H]2CO)[C@H](N)[C@@H](O)[C@@H]1O` (stereo partly specified), the dissociation constant (Kd) in test [1] (read-out: Kd) was determined as 8.5 µM; in test [2] (read-out: Kd) it was 5.7 µM; in test [3] (read-out: Kd), 6.1 µM; in [4] (read-out: Kd), 6.5 µM; in [5] (read-out: Kd), 15.6 µM; in test [6] (read-out: Kd), 24.1 µM. In [8], the deltaG was -6.72 kcal/mol. Further, the deltaH in test [9] is -9.51 kcal/mol. The TdeltaS in [10] is -2.8 kcal/mol.

On to `CC(=O)Nc1nccc(-c2cccc(NC(=O)c3cccnc3)c2)n1`, for which the Kd in [1] (read-out: Kd) is 659 µM; in [2] (read-out: Kd), 137 µM; in [3] (read-out: Kd), 290 µM; in test [4] (read-out: Kd), 360 µM; in [5] it was “Not Active”; in test [6], “Not Active”.

In the case of `NCC(=O)NCC(=O)Nc1nc2ccccc2[nH]1`, the dissociation constant Kd entry in test [1], in test [2], in test [3], in test [4], in test [5] and in [6] was “Not Active” in each case.

Consider `NCCCC(=O)NCC(=O)Nc1nc2ccccc2[nH]1`, for which the Kd entry in [1], in test [2], in [3], in test [4], in [5] and in test [6] was “Not Active” each time.

For the molecule `CC(=O)Nc1nccc(-c2cccc(N)c2)n1`, the Kd result in test [1] was “Not Active”.

Turning to `CC(=O)Nc1nccc(-c2cccc(NC(=O)CN)c2)n1`, the Kd in test [1] (read-out: Kd) is 863 µM; in [2] (read-out: Kd), 177 µM; in test [3] (read-out: Kd), 284 µM; in [4] (read-out: Kd), 438 µM; in test [5], “Not Active”; in test [6], “Not Active”.

Regarding `CC(=O)Nc1nccc(-c2cccc(NC(=O)CCCN)c2)n1`, the Kd in [1] (read-out: Kd) is 220 µM; in test [2] (read-out: Kd), 102 µM; in test [3] (read-out: Kd) it was 122 µM; in [4] (read-out: Kd) it was 159 µM; in test [5] it was “Not Active”; in test [6], “Not Active”.

For `CC(=O)Nc1nccc(-c2cccc(NC(=O)CCCN(C)C)c2)n1`, the equilibrium dissociation constant (Kd) in test [1] (read-out: Kd) was 36.9 µM; in test [2] (read-out: Kd), 29.5 µM; in test [3] (read-out: Kd), 31.5 µM; in test [4] (read-out: Kd), 34.8 µM; in test [5] (read-out: Kd), 38.4 µM; in test [6] (read-out: Kd), 32.5 µM. Further, the deltaG in test [8] is -6.02 kcal/mol. Further, in test [9], the deltaH was -1.91 kcal/mol. For the same molecule, the TdeltaS in test [10] was 4.11 kcal/mol.

`CC(=O)Nc1nccc(-c2cccc(NC(=O)[C@@H](N)CN)c2)n1`: the Kd in test [1] (read-out: Kd) worked out at 10.1 µM; in [2] (read-out: Kd), 5.1 µM; in test [3] (read-out: Kd), 6.5 µM; in test [4] (read-out: Kd), 7.6 µM; in test [5] (read-out: Kd), 18.4 µM; in test [6] (read-out: Kd) it was 30.1 µM. Moreover, in test [8], the deltaG was -6.64 kcal/mol. Further, the deltaH in test [9] was -9.63 kcal/mol. In addition, in test [10], the TdeltaS was -2.99 kcal/mol.
